{"source": "patent US20110293691A1", "about": "“MULTIMODAL ADHESION BARRIER” (priority 2010, published 2011)", "origin": "cited, not measured here", "test_system": "rat model", "settings": "oral or intraperitoneal, about one week prior to surgery and three weeks postoperatively"}
{"smiles": "O=C(CC1NCCCC1O)Cn1cnc2cc(Br)c(Cl)cc2c1=O", "note": "(stereo not shown) [Halofuginone, 7-bromo-6-chloro-3-[3-(3-hydroxy-2-piperidinyl)-2-oxopropyl]-4(3H)]", "values": [{"measurement": "prevention of adhesions (in words)", "value": "prevent adhesions in a rat model in a dose dependent manner"}]}
